Like-named read-outs stand apart in the source and are kept apart here.
Key:
Experiment in all cases: CellTiter Glo cell viability assay
Bladder 5637 = type: cell-based, human; details: for IC50: Homo sapiens
How it was run: (§1)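 Cells seeded at 1.7*10^3/well in quadruplicate; compounds at 18 two-fold dilutions from 5 μM (0.000038146-5 μM), or at 1, 2, 5, 10 and 20 μM. CellTiter Glo luminescence read on days 1, 3 and 5 after treatment. IC50 by nonlinear regression of luminescence versus log dose.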

Bladder SW780 = type: cell-based, human; details: for IC50: Homo sapiens, SW780, 72 h, 3 Days of treatment, 18 2-fold dilutions 5-0.00003 μM
How it was run: as §1

Bladder TCCSUP = type: cell-based, human; details: for IC50: Homo sapiens, TCC-SUP, 72 h, 3 Days of treatment, 18 2-fold dilutions 5-0.00003 μM
How it was run: as §1

Bladder UMUC-14 = type: cell-based, human; details: for IC50: Homo sapiens, UMUC14, 72 h, 3 Days of treatment, 18 2-fold dilutions 5-0.00003 μM
How it was run: as §1

Breast MDA-MB-231 = type: cell-based, human; details: for IC50: Homo sapiens
How it was run: as §1

Colon HCT_116 = type: cell-based, human; details: for IC50: Homo sapiens
How it was run: as §1

[1] = system: Connective Tissue Sarcoma HT-1080; type: cell-based, human; details: for IC50: Homo sapiens, HT-1080, 72 h, 3 Days of treatment, 18 2-fold dilutions 5-0.00003 μM
How it was run: as §1

Fibrosarcomas SW 684 = type: cell-based, human; details: for IC50: Homo sapiens, SW684, 72 h, 3 Days of treatment, 18 2-fold dilutions 5-0.00003 μM
How it was run: as §1

Kidney 786-O = type: cell-based, human; details: for IC50: Homo sapiens, 786-0, 72 h, 3 Days of treatment, 18 2-fold dilutions 5-0.00003 μM
How it was run: as §1

Kidney ACHN = type: cell-based, human; details: for IC50: Homo sapiens, ACHN
How it was run: as §1

Liposarcoma 93T449 = type: cell-based, human; details: for IC50: Homo sapiens, 72 h, 3 Days of treatment, 18 2-fold dilutions 5-0.00003 μM
How it was run: as §1

Liver JHH-7 = type: cell-based, human; details: for IC50: Homo sapiens, JHH7, 72 h, 3 Days of treatment, 18 2-fold dilutions 5-0.00003 μM
How it was run: as §1

Lung A549 = type: cell-based, human; details: for IC50: Homo sapiens, A549, 72 h, 3 Days of treatment, 18 2-fold dilutions 5-0.00003 μM
How it was run: as §1

Lung NCI-H1048 = type: cell-based, human; details: for IC50: Homo sapiens, NCI-H1048, 72 h, 3 Days of treatment, 18 2-fold dilutions 5-0.00003 μM
How it was run: as §1

Lung NCI-H1299 = type: cell-based, human; details: for IC50: Homo sapiens, NCI-H1299, 72 h, 18 2-fold dilutions 5-0.00003 μM
How it was run: as §1

Lung NCI-H1563 = type: cell-based, human; details: for IC50: Homo sapiens
How it was run: as §1

Osteosarcomas KHOS_312H = type: cell-based, human; details: for IC50: Homo sapiens, 72 h, 3 Days of treatment, 18 2-fold dilutions 5-0.00003 μM
How it was run: as §1

Osteosarcomas MG3 = type: cell-based, human; details: for IC50: Homo sapiens, 72 h, 3 Days of treatment, 18 2-fold dilutions 5-0.00003 μM
How it was run: as §1

Pancreatic CAPAN-2 = type: cell-based, human; details: for IC50: Homo sapiens, Capan-2, 72 h, 3 Days of treatment, 18 2-fold dilutions 5-0.00003 μM
How it was run: as §1

Breast 4T1 = type: cell-based; details: Table 5B: 11 dilutions 3-0.00001 μM; Exp N
Experimental: 1.7*10^3 cells/well were seeded in quadruplicates in 96-well plate after plating. Drugs were added at 5 μM and 2-fold dilutions over 18 concentrations (0.000038146-5 […] range) to generate a dose-response curve. Cell growth was assessed on day 1, 3 and 5 after drug treatments using the CellTiter Glo Luminescence Cell Viability Assay (Promega) according to manufacturer's protocol. Thermo Scientific Varioskan LUX Multimode Microplate instrument was used for plate reading. Data are expressed as mean luminescence (arbitrary units) ±S.D.
Cell Viability Assays were employed to determine the concentration of Compound 1 (KYN-001) and analogues where the response is reduced by half. For each treatment of cancer cells, 1, 2, 5, 10 and 20 μM solutions of compounds were applied. GraphPad Prism 7 software was used to fit dose response curves. Relative Luminescence Units were plotted against the log values of the doses used and the nonlinear regression model was used for data analysis.

Pancreatic CAPAN-1 = type: cell-based; details: Homo sapiens; Capan-1/HTB-79; 11 dilutions 3-0.00001 μM
[2] = 72 h, 3 Days of treatment, 18 2-fold dilutions 5-0.00003 μM, read-out: Average IC50
[3] = 120 h, Day 5 upon drug treatment, 10 dosages 0.0001-20 μM (Compound 8: 18 dosages 0.000038146 to 5 μM), read-out: IC50
[4] = MDA-MB-231, 72 h, 3 Days of treatment, 18 2-fold dilutions 5-0.00003 μM, read-out: Average IC50
[5] = MDA-MB-231, 120 h, Day 5 upon drug treatment, 10 dosages 0.0001-20 μM (Compound 8: 18 dosages 0.000038146 to 5 μM), read-out: IC50
[6] = HCT-116, 72 h, 3 Days of treatment, 18 2-fold dilutions 5-0.00003 μM, read-out: Average IC50
[7] = HCT-116, 120 h, Day 5 upon drug treatment, 10 dosages 0.0001-20 μM (Compound 8: 18 dosages 0.000038146 to 5 μM), read-out: IC50
[8] = 72 h, Table 4: 3 Days of treatment, 18 2-fold dilutions 5-0.00003 μM, Average (1, 8) or single Exp A-D, read-out: IC50
[9] = 3 Days of treatment, read-out: Average IC50
[10] = Table 4: 3 Days of treatment, Average (1, 8) or single Exp A-D, read-out: IC50
[11] = NCI-H1563, 72 h, 3 Days of treatment, 18 2-fold dilutions 5-0.00003 μM, read-out: Average IC50
[12] = NCI-H1563/CRL-5875, 11 dilutions 3-0.00001 μM, read-out: IC50
[13] = IC50 of 1 [KYN-001] vs 8 [KYN-119], 3 Days

SMILES: COc1cc(/C=C/c2cc(O)cc(OC)c2CC=C(C)C)ccc1O [Compound 1, (E)-3-(4-hydroxy-3-methoxystyryl)-5-methoxy-4-(3-methylbut-2-en-1-yl)phenol]
- IC50 (Bladder 5637; [2]): 34.7 nM
- IC50 (Bladder 5637; [3]): 30.6 nM
- IC50 (Bladder SW780): 712 nM
- IC50 (Bladder TCCSUP): 294 nM
- IC50 (Bladder UMUC-14): 1160 nM
- IC50 (Breast MDA-MB-231; [4]): 32.6 nM
- IC50 (Breast MDA-MB-231; MDA-MB-231, 72 h, Day 3 upon drug treatment, 10 dosages 0.0001-20 μM, read-out: IC50): 29.3 nM
- IC50 (Breast MDA-MB-231; [5]): 57.3 nM
- IC50 (Colon HCT_116; [6]): 416 nM
- IC50 (Colon HCT_116; [7]): 165 nM
- IC50 [1]: 36.7 nM
- IC50 (Fibrosarcomas SW 684): 55.2 nM
- IC50 (Kidney 786-O): 334 nM
- IC50 (Kidney ACHN; [2]): 494 nM
- IC50 (Kidney ACHN; [8]): 496 nM
- IC50 (Kidney ACHN; [3]): 89.7 nM
- IC50 (Liposarcoma 93T449): 55.5 nM
- IC50 (Liver JHH-7): 696 nM
- IC50 (Lung A549): 163 nM
- IC50 (Lung NCI-H1048): 91.7 nM
- IC50 (Lung NCI-H1299; [9]): 62.4 nM
- IC50 (Lung NCI-H1299; [10]): 64.2 nM
- IC50 (Lung NCI-H1563; [11]): 449 nM
- IC50 (Lung NCI-H1563; [12]): 184 nM
- IC50 (Osteosarcomas KHOS_312H): 356 nM
- IC50 (Osteosarcomas MG3): 35.9 nM
- IC50 (Pancreatic CAPAN-2): 182 nM
- IC50 (Breast 4T1): 117 nM
- IC50 (Pancreatic CAPAN-1): 2670 nM

SMILES: CCOc1cc(O)cc(/C=C/c2ccc(O)c(OC)c2)c1CC=C(C)C [Compound 8, (E)-3-Ethoxy-5-(4-hydroxy-3-methoxystyryl)-4-(3-methylbut-2-en-1-yl)phenol]
- IC50 (Bladder 5637; [2]): 3.91 nM
- IC50 (Bladder 5637; [3]): ~9.43 nM
- Fold IC50 (Bladder 5637; [13]): 8.9
- IC50 (Bladder SW780): 217 nM
- Fold IC50 (Bladder SW780; [13]): 3.3
- IC50 (Bladder TCCSUP): 112 nM
- Fold IC50 (Bladder TCCSUP; [13]): 2.6
- IC50 (Bladder UMUC-14): 563 nM
- Fold IC50 (Bladder UMUC-14; [13]): 2.1
- IC50 (Breast MDA-MB-231; [4]): 8.48 nM
- IC50 (Breast MDA-MB-231; [5]): ~0.00253 nM
- Fold IC50 (Breast MDA-MB-231; [13]): 3.8
- IC50 (Colon HCT_116; [6]): 35.5 nM
- IC50 (Colon HCT_116; [7]): 28 nM
- Fold IC50 (Colon HCT_116; [13]): 12
- IC50 [1]: 17.3 nM
- Fold IC50 [1, 13]: 2.1
- IC50 (Fibrosarcomas SW 684): 4.63 nM
- Fold IC50 (Fibrosarcomas SW 684; [13]): .12
- IC50 (Kidney 786-O): 64.8 nM
- Fold IC50 (Kidney 786-O; [13]): 5.1
- IC50 (Kidney ACHN; [2]): 10.4 nM
- IC50 (Kidney ACHN; [8]): 9.8 nM
- IC50 (Kidney ACHN; [3]): ~0.0135 nM
- Fold IC50 (Kidney ACHN; [13]): 48
- IC50 (Liposarcoma 93T449): 15.1 nM
- Fold IC50 (Liposarcoma 93T449; [13]): 3.7
- IC50 (Liver JHH-7): 519 nM
- Fold IC50 (Liver JHH-7; [13]): 1.3
- IC50 (Lung A549): 30.9 nM
- Fold IC50 (Lung A549; [13]): 5.3
- IC50 (Lung NCI-H1048): 14.5 nM
- Fold IC50 (Lung NCI-H1048; [13]): 6.3
- IC50 (Lung NCI-H1299; [9]): 8.56 nM
- IC50 (Lung NCI-H1299; [10]): 8.56 nM
- Fold IC50 (Lung NCI-H1299; [13]): 7.3
- IC50 (Lung NCI-H1563; [11]): 19.5 nM
- IC50 (Lung NCI-H1563; [12]): 54.5 nM
- Fold IC50 (Lung NCI-H1563; [13]): 23
- IC50 (Osteosarcomas KHOS_312H): 36.7 nM
- Fold IC50 (Osteosarcomas KHOS_312H; [13]): 9.7
- IC50 (Osteosarcomas MG3): 6.88 nM
- Fold IC50 (Osteosarcomas MG3; [13]): 5.2
- IC50 (Pancreatic CAPAN-2): 9.75 nM
- Fold IC50 (Pancreatic CAPAN-2; [13]): 19
- IC50 (Pancreatic CAPAN-1): 2320 nM

SMILES: CCOc1cc(O)cc(/C=C/c2ccc(O)c(O)c2)c1CC=C(C)C [Compound 20, (E)-4-(3-Ethoxy-5-hydroxy-2-(3-methylbut-2-en-1-yl)styryl)benzene-1,2-diol]
- IC50 (Lung NCI-H1563; [12]): 74.1 nM
- IC50 (Pancreatic CAPAN-1): 2240 nM

SMILES: COc1cc(/C=C/c2cc(O)cc(OC)c2CC=C(C)C)ccc1NC=O [Compound 27, (E)-N-(4-(5-hydroxy-3-methoxy-2-(3-methylbut-2-en-1-yl)styryl)-2-methoxyphenyl)formamide]
- IC50 (Lung NCI-H1563; [12]): 59.8 nM
- IC50 (Breast 4T1): 29.2 nM
- IC50 (Pancreatic CAPAN-1): 792 nM

SMILES: CCOc1cc(O)cc(/C=C/c2ccc(NC=O)c(OC)c2)c1CC=C(C)C [Compound 28, (E)-N-(4-(3-Ethoxy-5-hydroxy-2-(3-methylbut-2-en-1-yl)styryl)-2-methoxyphenyl)formamide]
- IC50 (Lung NCI-H1563; [12]): 15.9 nM
- IC50 (Pancreatic CAPAN-1): 735 nM
